The structures appear in SMILES notation.

Holding throughout (assay type): in vivo
Data set [1] deals with Echinochloa crus-galli (ECHCG). The data set can be described thus: Post-emergence herbicidal activity, glasshouse pot test. The note with it: 312 h, evaluated after 13 days, 100=total damage to plant, 0=no damage. On the procedure: (§1) Seeds of a variety of test species are sown in standard soil in pots. After cultivation for one day (pre-emergence) or after 8 days cultivation (post-emergence) under controlled conditions in a glasshouse (at 24/16° C., day/night; 14 hours light; 65% humidity), the plants are sprayed with an aqueous spray solution derived from the formulation of the technical active ingredient in acetone/water (50:50) solution containing 0.5% Tween 20 (polyoxyethylene sorbitan monolaurate, CAS RN 9005-64-5). The test plants are then grown in a glasshouse under controlled conditions in a glasshouse (at 24/16° C., day/night; 14 hours light; 65% humidity) and watered twice daily. After 13 days for pre and post-emergence, the test is evaluated (100=total damage to plant; 0=no damage to plant). Lolium perenne (LOLPE), Alopecurus myosuroides (ALOMY), Echinochloa crus-galli (ECHCG), Avena fatua (AVEFA) Post-Emergence Activity

Data set [2] has as its system Alopecurus myosuroides (ALOMY). Described as above. Particulars: 312 h, evaluated after 13 days, 100=total damage to plant, 0=no damage. On the procedure:
as §1

The test system of data set [3] is Lolium perenne (LOLPE). The description is as above. The note with it: 312 h, evaluated after 13 days, 100=total damage to plant, 0=no damage. On the procedure: as §1
For data set [4], the system named is Avena fatua (AVEFA). The data set is described as above. Particulars: 312 h, evaluated after 13 days, 100=total damage to plant, 0=no damage. On the procedure:
as §1

The subject of data set [5] is Winter Wheat variety 'Hereward'. The data set can be described thus: Crop damage to winter wheat, post-emergence spray. The note with it: 250 g/ha, no safener, evaluated after 13 days, 100=total damage to plant, 0=no damage. As for the experimental part: Seeds of the Winter Wheat variety ‘Hereward’ were sown in standard soil in pots. After 8 days cultivation under controlled conditions in a glasshouse (at 24/16° C., day/night; 14 hours light; 65% humidity), the plants were sprayed post-emergence with an aqueous spray solution derived from the formulation of the technical active ingredient in acetone/water (50:50) solution containing 0.5% Tween 20 (polyoxyethylene sorbitan monolaurate, CAS RN 9005-64-5). The test plants were then grown in a glasshouse under controlled conditions in a glasshouse (at 24/16° C., day/night; 14 hours light; 65% humidity) and watered twice daily. After 13 days for pre and post-emergence, the test was evaluated (100=total damage to plant; 0=no damage to plant).

Data set [6] has the same test system. The data set can be described thus: Crop damage to winter wheat seed treated with safener cloquintocet mexyl, post-emergence spray. The note with it: 250 g/ha, seed treated with cloquintocet mexyl 0.5 g/kg seed, evaluated after 13 days, 100=total damage, 0=no damage. On the procedure: Seeds of the Winter Wheat variety ‘Hereward’ were seed treated with a wettable powder formulation of the cereal herbicide safener, cloquintocet mexyl, at a rate of 0.5 grams per kilogram of dry seed prior to the initiation of glasshouse testing. One seed was sown per 1.5 inch plastic pot into a sandy loam soil at a depth of 1 cm, 8 days prior to application of the test compounds and was watered and grown under controlled conditions in a glasshouse (at 24/16° C., day/night; 14 hours light; 65% humidity). The plants were sprayed post-emergence with an aqueous spray solution derived from the formulation of the technical active ingredient in acetone/water (50:50) solution containing 0.5% Tween 20 (polyoxyethylene sorbitan monolaurate, CAS RN 9005-64-5). The test plants were then grown in a glasshouse under controlled conditions in a glasshouse (at 24/16° C., day/night; 14 hours light; 65% humidity) and watered twice daily. After 13 days for pre and post-emergence, the test was evaluated (100=total damage to plant; 0=no damage to plant).

For data set [7], the system named is Echinochloa crus-galli (ECHCG). The data set can be described thus: Pre-emergence herbicidal activity, glasshouse pot test. Particulars: rate not printed (columns shifted), evaluated after 13 days, 100=total damage to plant, 0=no damage. As for the experimental part: as §1, with “Pre-Emergence” for “Post-Emergence”
Data set [8] concerns Alopecurus myosuroides (ALOMY). The description is as above. Particulars: rate not printed (columns shifted), evaluated after 13 days, 100=total damage to plant, 0=no damage. On the procedure: as §1, with “Pre-Emergence” for “Post-Emergence”
Data set [9] concerns Lolium perenne (LOLPE). The data set is described as above. Particulars: rate not printed (columns shifted), evaluated after 13 days, 100=total damage to plant, 0=no damage. As for the experimental part: as §1, with “Pre-Emergence” for “Post-Emergence”
In data set [10] the test system is Avena fatua (AVEFA). The data set is described as above. Particulars: rate not printed (columns shifted), evaluated after 13 days, 100=total damage to plant, 0=no damage. As for the experimental part: as §1, with “Pre-Emergence” for “Post-Emergence”

On to `Cc1sc(-c2ccc(Cl)cc2)cc1C1C(=O)C/C(=C\C2CCOCC2)C1=O` (centres unmarked) [Compound A10], for which the pest or weed control (as a rule, how far the test organism was held down) at 250 g/ha in data set [1] came out at 70%; in data set [2] it was 20%; in data set [3] it was 10%; in data set [4], 0%.
As to `Cc1sc(-c2ccc(Cl)cc2)nc1C1C(=O)CC(CC2CCOCC2)C1=O` (centres unmarked) [Compound A18], the pest or weed control at 250 g/ha in data set [1], in data set [2], in [3] and in [4] was 100% each time. Moreover, the “Winter Wheat (Hereward) (damage to plant)” value in data set [5] is listed as 80. Further, the “Winter Wheat (Hereward) + cloquintocet mexyl (damage to plant)” value in data set [6] was 90. The “Pre-Emergence Activity ECHCG (damage to plant)” value (shortened to “Pre-Emergence Activity ECHCG”) in data set [7] is on record as 100. For the same molecule, in data set [8], the “Pre-Emergence Activity ALOMY (damage to plant)” value (“Pre-Emergence Activity ALOMY” for short) came out at 80. For the same molecule, the “Pre-Emergence Activity LOLPE (damage to plant)” value (“Pre-Emergence Activity LOLPE” below) in data set [9] was 100. In addition, the “Pre-Emergence Activity AVEFA (damage to plant)” value (shortened to “Pre-Emergence Activity AVEFA”) in data set [10] is 90.
For the molecule `Cc1cc(-c2ccc(Cl)cc2)nn1C1C(=O)CC(Cc2ccc(F)cn2)C1=O` (centres unmarked) [Compound A20], the pest or weed control at 250 g/ha in [1] worked out at 100%; in data set [2], 80%; in data set [3] it was 90%; in data set [4], 90%. Moreover, the “Winter Wheat (Hereward) (damage to plant)” value in data set [5] is 70. In [6], the “Winter Wheat (Hereward) + cloquintocet mexyl (damage to plant)” value is 70. Besides, in data set [7], the “Pre-Emergence Activity ECHCG” value amounted to 100. In addition, the “Pre-Emergence Activity ALOMY” value in [8] amounted to 40. Further, the “Pre-Emergence Activity LOLPE” value in data set [9] amounted to 70. Also, in data set [10], the “Pre-Emergence Activity AVEFA” value is given as 20.
As to `Cc1cnc(-c2ccc(Cl)cc2)nc1C1C(=O)C/C(=C\C2CCOCC2)C1=O` (centres unmarked) [Compound A9], the pest or weed control at 250 g/ha was 100% in data set [1], 20% in [2], 40% in data set [3] and 60% in [4]. Further, the “Winter Wheat (Hereward) (damage to plant)” value in [5] is reported as 50. The “Winter Wheat (Hereward) + cloquintocet mexyl (damage to plant)” value in data set [6] turned out to be 0. Further, the “Pre-Emergence Activity ECHCG” value in data set [7] came out at 100. In data set [8], the “Pre-Emergence Activity ALOMY” value was found to be 10. Also, in [9], the “Pre-Emergence Activity LOLPE” value amounted to 70. In addition, the “Pre-Emergence Activity AVEFA” value in data set [10] is 50.
Take `Cc1cc(-c2ccc(Cl)cc2)nn1C1C(=O)C/C(=C\C2CCOCC2)C1=O` (centres unmarked) [Compound A23]: the pest or weed control at 250 g/ha in data set [1] is 100%; in data set [2], 90%; in [3], 100%; in data set [4], 100%. Besides, the “Winter Wheat (Hereward) (damage to plant)” value in data set [5] amounted to 80. Moreover, in data set [6], the “Winter Wheat (Hereward) + cloquintocet mexyl (damage to plant)” value is recorded as 60. In addition, the “Pre-Emergence Activity ECHCG” value in data set [7] amounted to 100. In [8], the “Pre-Emergence Activity ALOMY” value is recorded as 90. In addition, the “Pre-Emergence Activity LOLPE” value in data set [9] was 100. In [10], the “Pre-Emergence Activity AVEFA” value was 90.
As for `Cc1sc(-c2ccc(Cl)cc2)nc1C1C(=O)C/C(=C\c2ccoc2)C1=O` (centres unmarked) [Compound A11], the pest or weed control at 250 g/ha in [1] was found to be 80%; in [2], 10%; in [3] it was 0%; in data set [4] it was 0%.
For `Cc1cc(-c2ccc(Cl)cc2)nn1C1C(=O)CC(CC2CCOCC2)C1=O` (centres unmarked) [Compound A25], the pest or weed control at 250 g/ha in data set [1], in data set [2], in data set [3] and in data set [4] was 100% throughout. Besides, the “Winter Wheat (Hereward) (damage to plant)” value in data set [5] is given as 80. The “Winter Wheat (Hereward) + cloquintocet mexyl (damage to plant)” value in data set [6] is recorded as 40. Moreover, the “Pre-Emergence Activity ECHCG” value in data set [7] stood at 100. The “Pre-Emergence Activity ALOMY” value in data set [8] was 70. Also, the “Pre-Emergence Activity LOLPE” value in data set [9] is given as 90. In addition, the “Pre-Emergence Activity AVEFA” value in data set [10] was 70.
With `Cc1cc(-c2ccc(Cl)cc2)nn1C1C(=O)C/C(=C/c2ccc(F)cn2)C1=O` (centres unmarked) [Compound A22], the pest or weed control at 250 g/ha in data set [1] came to 90%; in data set [2] it was 70%; in [3] it was 50%; in data set [4], 60%. Besides, the “Winter Wheat (Hereward) (damage to plant)” value in data set [5] was 60. Further, the “Winter Wheat (Hereward) + cloquintocet mexyl (damage to plant)” value in data set [6] stood at 10. Moreover, the “Pre-Emergence Activity ECHCG” value in [7] stood at 70. For the same molecule, the “Pre-Emergence Activity ALOMY” value in [8] worked out at 40. Besides, in [9], the “Pre-Emergence Activity LOLPE” value worked out at 60. The “Pre-Emergence Activity AVEFA” value in data set [10] is 20.
In the case of `Cc1sc(-c2ccc(Cl)cc2)nc1C1C(=O)C/C(=C/c2ccccn2)C1=O` (centres unmarked) [Compound A15], the pest or weed control at 250 g/ha came to 20% in data set [1], 10% in [2], 0% in data set [3] and 0% in data set [4]. For the same molecule, in data set [5], the “Winter Wheat (Hereward) (damage to plant)” value is 10. Moreover, in data set [6], the “Winter Wheat (Hereward) + cloquintocet mexyl (damage to plant)” value is given as 0.
`Cc1sc(-c2ccc(Cl)cc2)nc1C1C(=O)C/C(=C\c2ccc(F)cn2)C1=O` (centres unmarked) [Compound A13]: the pest or weed control at 250 g/ha in data set [1] amounted to 20%; in [2], 10%; in [3], 0%; in [4] it was 10%.
Turning to `Cc1ccc2c(cnn2C)c1C1C(=O)CC(CC2CCOCC2)C1=O` (centres unmarked) [Compound A19], the pest or weed control at 250 g/ha was 40% in [1], 20% in data set [2], 0% in data set [3] and 10% in [4].
The like results for `Cc1sc(-c2ccc(Cl)cc2)cc1C1C(=O)CC(CC2CCOC2)C1=O` (centres unmarked) [Compound A5] were, in that order, 80%, 50%, 30% and 50%.
For `Cc1sc(COc2ccc(Cl)cc2)nc1C1C(=O)C/C(=C\C2CCOCC2)C1=O` (centres unmarked) [Compound A3] the same measures were 20%, 10%, 0% and 0%.
For the molecule `Cc1sc(-c2ccc(Cl)cc2)cc1C1C(=O)CC(CC2CCOCC2)C1=O` (centres unmarked) [Compound A6], the pest or weed control at 250 g/ha was 60% in data set [1], 50% in [2], 0% in data set [3] and 0% in data set [4]. The “Winter Wheat (Hereward) (damage to plant)” value in data set [5] is on record as 10. In addition, the “Winter Wheat (Hereward) + cloquintocet mexyl (damage to plant)” value in data set [6] is reported as 0.
On to `Cc1sc(-c2ccc(Br)cn2)nc1C1C(=O)C/C(=C\C2CCOCC2)C1=O` (centres unmarked) [Compound A4], for which the pest or weed control at 250 g/ha in data set [1] is 70%; in [2], 20%; in data set [3], 0%; in [4], 0%.
Take `Cc1sc(COc2ccc(Cl)cc2)nc1C1C(=O)CC(CC2CCOCC2)C1=O` (centres unmarked) [Compound A2]: the pest or weed control at 250 g/ha in data set [1] worked out at 20%; in data set [2], 10%; in data set [3] it was 10%; in data set [4], 0%.

Values taken from patent US9051300B2, “Herbicides” (Syngenta Limited, priority 2009, dated 2015).
